Test results as given in article PMC7822874, “Chemoprotective antimalarials identified through quantitative high-throughput screening of Plasmodium blood and liver stage parasites” (Scientific Reports, 2021).
Like-named read-outs stand apart in the source and are kept apart here.

Tests used:
[1] = test system: P. falciparum Dd2 Cytb F123L; assay: SYBR Green ABS proliferation assay, NCGC00473217 selected clone G08; assay type: cell-based, Plasmodium falciparum; settings: Plasmodium falciparum
Method: (§1) As resistance selection studies implicated the parasite cytochrome bc1 complex in mediating reduced parasite susceptibility to both NCGC00473217 and NCGC00374598, we leveraged these drug-selected parasites to test for altered drug response to a panel of antimalarial compounds.
(§2) The P. falciparum parasite Dd2 line was cultured in vitro using standard conditions. […] Tissue culture flasks and assay plates were incubated at 37 °C under a gas mixture of 5% CO2, 5% O2 and 90% N2. […] Significant differences were assessed using two-sided Student’s t-tests. All HTS assays were stopped and read at 72 h. Percent response values represent relative growth as judged by SYBR Green-I fluorescence intensity values normalized to controls.
(§3) Fresh uninfected RBCs (0.5% hematocrit) were added on day 7 and media was changed every other day. […] Resistant parasites were maintained under drug media at a volume of 50 mL until a high parasitemia (> 5%) was achieved. Aliquots of the bulk resistant cultures were frozen in cryovials before cloning by limiting dilution in 96-well plates (seeded at 0.25 or 0.5 parasites/well)[70]. After 3 weeks of cloning, we screened for positive wells by flow cytometry with SYBR Green-stained cells. […] Parasites were harvested by saponin lysis at the trophozoite stage and genomic DNA was extracted using the QIAamp DNA Blood Midi Kit (Qiagen, Germantown, MD)[71].

[2] = test system: Plasmodium falciparum Dd2 asexual blood stage parasites; assay: microbe, parasite or virus in culture; parameters: species or system Plasmodium falciparum Dd2 in human erythrocytes; single determination (one 11-point concentration-response curve); settings: Plasmodium falciparum, DD2, Erythrocyte, 72 h; read-out: AC50
[3] = test system: P. falciparum Dd2 Cytb A122D; assay: SYBR Green ABS proliferation assay, NCGC00473217 selected clone F12; assay type: cell-based, Plasmodium falciparum; settings: Plasmodium falciparum
Method: as §1, §2, §3

[4] = test system: P. falciparum Dd2 Cytb G131S; assay: SYBR Green ABS proliferation assay, NCGC00374598 selected clone C11; assay type: cell-based, Plasmodium falciparum; settings: Plasmodium falciparum
Method in brief: (§4)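 72 h SYBR Green-I read; % response = relative growth vs controls. Clones from resistance selection, cloned by limiting dilution; 37 °C, 5% CO2/5% O2/90% N2.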

[5] = test system: P. falciparum Dd2 Cytb V259L; assay: SYBR Green ABS proliferation assay, NCGC00473217 selected clone F06; assay type: cell-based, Plasmodium falciparum; settings: Plasmodium falciparum
Method in brief: as §4

[6] = DD2, cytochrome b mutant line, fifth value triple, c15, […], read-out: log AC50, mean (converted)
[7] = DD2, cytochrome b mutant line, fourth value triple, c12, […], read-out: log AC50, mean (converted)
[8] = DD2, cytochrome b mutant line, second value triple, c6, […], read-out: log AC50, mean (converted)
[9] = DD2, cytochrome b mutant line, third value triple, c9, […], read-out: log AC50, mean (converted)

Row | Structure (SMILES) | AC50 [1, 6] | AC50 [2] | AC50 [3, 7] | AC50 [4, 8] | AC50 [5, 9] | AC50 ([1]; DD2, […], averaged from three independent replicates, top concentration 29 µM, read-out: Average AC50 (Log[M]), NCGC00473217 clone G08 (Cytb F123L) (converted)) | AC50 ([3]; DD2, […], averaged from three independent replicates, top concentration 29 µM, read-out: Average AC50 (Log[M]), NCGC00473217 clone F12 (Cytb A122D) (converted)) | AC50 ([4]; DD2, […], averaged from three independent replicates, top concentration 29 µM, read-out: Average AC50 (Log[M]), NCGC00374598 clone C11 (Cytb G131S) (converted)) | AC50 ([5]; DD2, […], averaged from three independent replicates, top concentration 29 µM, read-out: Average AC50 (Log[M]), NCGC00473217 clone F06 (Cytb V259L) (converted))
1 | CN(C)c1nc2c(c(=O)[nH]1)CCN(Cc1ccc(F)cc1Cl)CC2 [NCGC00440505-01] | 1.74e-06 M | 10.6 µM | 5.51e-06 M | 6.18e-06 M | 1.02e-05 M | – | – | – | –
2 | CN(C)c1nc2c(c(=O)[nH]1)CCN(Cc1ccccc1Br)CC2 [NCGC00440591-01] | 1.44e-06 M | 9.44 µM | 5.73e-06 M | 6.93e-06 M | 1.33e-05 M | – | – | – | –
3 | CN(C)c1nc2c(c(=O)[nH]1)CCN(Cc1ccc(Br)cc1)CC2 [NCGC00440593-01] | 1.33e-06 M | 13.3 µM | 4.55e-06 M | 5.51e-06 M | 9.79e-06 M | – | – | – | –
4 | O=c1[nH]c(N2CCOCC2)nc2c1CCN(Cc1ccccc1Br)CC2 [NCGC00440625-01] | 1.19e-06 M | 15 µM | 6.93e-06 M | 6.43e-06 M | 9.44e-06 M | – | – | – | –
5 | O=c1[nH]c(N2CCOCC2)nc2c1CCN(Cc1ccccc1C(F)(F)F)CC2 [NCGC00440637-01] | 6.18e-07 M | 4.73 µM | 2.66e-06 M | 3.61e-06 M | 8.09e-06 M | – | – | – | –
6 | O=c1[nH]c(N2CCOCC2)nc2c1CCN(Cc1cc(Br)ccc1F)CC2 [NCGC00440663-01] | 3.61e-06 M | 5.31 µM | 4.91e-06 M | 6.68e-06 M | 2.37e-05 M | – | – | – | –
7 | COc1ccc(-c2nc(C3CC3)nc3c2CCN(Cc2cccnc2)CC3)cc1 [NCGC00476959-01] | 1.38e-05 M | 13.3 µM | 1.95e-05 M | 1.33e-05 M | 1.81e-05 M | – | – | – | –
8 | O=C(c1ccc(C(F)(F)F)cc1)N1CCc2nc(C3CC3)nc(-c3ccc(Cl)cc3)c2CC1 [NCGC00476963-01] | 8.41e-06 M | 13.3 µM | 1.5e-05 M | 1.28e-05 M | 1.58e-05 M | – | – | – | –
9 | CCCN1C(CC(C)C)=N[S+](=O)([O-])c2cc(NC(=O)c3cn(C)cn3)ccc21 [NCGC00521148-01] | – | – | – | – | – | 7.1e-06 M | 1.12e-05 M | 2.67e-06 M | 1.17e-05 M
10 | CCCN1C(CC(C)C)=N[S+](=O)([O-])c2cc(NC(=O)c3ccc(Br)c(F)c3)ccc21 [NCGC00531761-01] | 7.96e-08 M | – | 1e-06 M | 1.12e-06 M | 3.36e-06 M | – | – | – | –
11 | CCCN1C(CC(C)C)=N[S+](=O)([O-])c2cc(NC(=O)c3ccccc3OC)ccc21 [NCGC00531762-01] | 2.52e-06 M | – | 1.12e-06 M | 1e-06 M | 2e-06 M | – | – | – | –
12 | CCCN1C(CC(C)C)=N[S+](=O)([O-])c2cc(NC(=O)c3ccc(SC)cc3)ccc21 [NCGC00531764-01] | 1e-05 M | – | 8.93e-06 M | 7.96e-08 M | 2.12e-06 M | – | – | – | –
13 | CCCN1C(CC(C)C)=N[S+](=O)([O-])c2cc(NC(=O)c3ccccc3C(F)(F)F)ccc21 [NCGC00531765-01] | 1.17e-05 M | – | 1.17e-05 M | 7.67e-06 M | 7.52e-06 M | – | – | – | –
14 | CCCN1C(CC(C)C)=N[S+](=O)([O-])c2cc(NC(=O)c3ccc(F)c(Br)c3)ccc21 [NCGC00531767-01] | 6.32e-06 M | – | 8.61e-06 M | 2.08e-06 M | 1.06e-06 M | – | – | – | –
15 | CCCN1C(CC(C)C)=N[S+](=O)([O-])c2cc(NC(=O)c3ccc(F)c(Cl)c3)ccc21 [NCGC00531769-01] | 3.99e-07 M | – | 7.38e-06 M | 2.82e-06 M | 3.7e-06 M | – | – | – | –
16 | CCCN1C(CC(C)C)=N[S+](=O)([O-])c2cc(NC(=O)c3cccc(Cl)c3)ccc21 [NCGC00531770-01] | 4.48e-06 M | – | 2.82e-06 M | 4.74e-06 M | 3.56e-06 M | – | – | – | –
17 | CCCN1C(CC(C)C)=N[S+](=O)([O-])c2cc(NC(=O)c3cccc(OC)c3)ccc21 [NCGC00531773-01] | 1.06e-05 M | – | 1e-05 M | 3.56e-06 M | 7.67e-06 M | – | – | – | –
18 | CCCN1C(CC(C)C)=N[S+](=O)([O-])c2cc(NC(=O)c3ccc(Cl)cc3)ccc21 [NCGC00531775-01] | 3.17e-06 M | – | 2.24e-07 M | 2e-07 M | 6.32e-07 M | – | – | – | –
